# Experimental data: patent publication US8450320B2, “Pyrrolopyrazinone inhibitors of kinases” (AbbVie Inc., priority 2010, dated 2013)
# pKi: −log10 of the molar value.
# Target: T1, Cdc7 (BEV coexpressed huCDC7/DBF4) (Homo sapiens, UniProt O00311)
# T1 construct: made in house; host or cells: BEV (baculovirus expression vector)
# Assay: Cdc7 enzyme inhibition assay ([33P]-ATP, biotinylated peptide substrate, FlashPlate)
# Format: biochemical
# Conditions: Ki generated from IC50 assuming ATP-competitive inhibition; 1 μM ATP, apparent ATP Km 0.7 μM
# Method: This example describes the assays that may be used to identify compounds having kinase activity.
# Cdc7 (BEV coexpressed huCDC7/DBF4) is prepared internally. Cdc7 assays are conducted as follows with final concentrations as listed. In 384-well v-bottom polypropylene plates, 6 μL compound (2% DMSO), is mixed with 6 μL of Cdc7 (2 ug/mL), and Jerini peptide substrate A-All (biotin-C6linker-TPSDSLIYDDGLS) (2 μM), followed by immediate initiation with 6 μL […] (1 μM, 20 mCi/μmol) using a reaction buffer comprising 25 mM HEPES, pH 7.5, 1 mM DTT, 10 mM MgCl2, 100 μM Na3VO4, 0.075 mg/ml Triton X-100. Reactions are quenched after 1 hr by the addition of 90 μL stop buffer (50 mM EDTA, 2M NaCl). 85 μL of the stopped reactions are transferred to 384-well streptavidin-coated plates (FlashPlate Plus, Perkin Elmer), incubated 30 minutes at room temperature and washed 3 times with 0.05% Tween-20/PBS using an ELX-405 automated plate washer (BioTek), and counted on a TopCount Scintillation Plate Reader (Packard). IC50 values are determined via non-linear regression fitting of enzyme inhibition data and corresponding Ki values are generated assuming ATP-competitive (equilibrium) inhibition and using the experimentally determined apparent ATP Km of 0.7 μM (as determined using the above assay condition, but varying ATP).
# Table 1 depicts enzyme inhibition data (Ki) for exemplary compounds. In Table 1, “A” represents a Ki of less than 10 nM, “B” represents a Ki of between 10 nM and 100 nM, and “C” represents a Ki of greater than 100 nM.
# T1 sequence (O00311 whole entry): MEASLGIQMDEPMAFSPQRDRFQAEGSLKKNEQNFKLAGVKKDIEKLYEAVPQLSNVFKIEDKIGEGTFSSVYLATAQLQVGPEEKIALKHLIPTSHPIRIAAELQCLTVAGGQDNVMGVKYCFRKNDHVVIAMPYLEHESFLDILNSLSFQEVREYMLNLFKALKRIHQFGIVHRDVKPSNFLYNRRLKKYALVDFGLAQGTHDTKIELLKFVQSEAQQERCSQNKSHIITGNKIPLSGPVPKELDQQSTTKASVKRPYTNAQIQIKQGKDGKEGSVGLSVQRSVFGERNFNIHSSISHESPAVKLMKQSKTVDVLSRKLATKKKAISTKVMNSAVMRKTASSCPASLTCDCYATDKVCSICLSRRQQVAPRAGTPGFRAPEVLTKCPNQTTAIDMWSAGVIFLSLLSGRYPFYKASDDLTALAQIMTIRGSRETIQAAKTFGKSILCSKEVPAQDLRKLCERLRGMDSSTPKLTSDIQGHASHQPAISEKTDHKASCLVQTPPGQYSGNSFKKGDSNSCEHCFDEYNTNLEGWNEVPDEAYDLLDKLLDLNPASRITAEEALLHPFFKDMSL
# T1 sequence (Q9UBU7 whole entry partner): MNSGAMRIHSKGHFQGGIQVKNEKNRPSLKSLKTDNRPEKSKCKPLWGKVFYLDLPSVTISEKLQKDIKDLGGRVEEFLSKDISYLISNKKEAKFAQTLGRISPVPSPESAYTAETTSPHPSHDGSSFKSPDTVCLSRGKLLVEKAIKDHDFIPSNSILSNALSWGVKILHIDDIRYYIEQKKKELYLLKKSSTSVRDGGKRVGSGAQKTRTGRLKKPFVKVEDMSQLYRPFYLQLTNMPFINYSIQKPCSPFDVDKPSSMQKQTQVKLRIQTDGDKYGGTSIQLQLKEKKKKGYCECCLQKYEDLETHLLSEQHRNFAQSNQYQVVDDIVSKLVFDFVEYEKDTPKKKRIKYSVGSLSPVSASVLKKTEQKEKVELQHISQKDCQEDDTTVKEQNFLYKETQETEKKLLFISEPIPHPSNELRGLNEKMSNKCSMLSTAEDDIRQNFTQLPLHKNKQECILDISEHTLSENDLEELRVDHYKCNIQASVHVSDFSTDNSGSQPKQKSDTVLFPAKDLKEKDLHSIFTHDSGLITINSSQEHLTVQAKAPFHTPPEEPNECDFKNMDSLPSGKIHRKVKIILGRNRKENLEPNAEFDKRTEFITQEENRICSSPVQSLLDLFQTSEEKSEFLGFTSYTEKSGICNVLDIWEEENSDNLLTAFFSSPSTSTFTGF
row,SMILES,pKi
1,"CCC(CC)Nc1ccc(Cc2c[nH]c(=O)c3cc(-c4c[nH]c5ncccc45)cn23)cc1 [Example 35, 4-[4-(pentan-3-ylamino)benzyl]-7-(1H-pyrrolo[2,3-b]pyridin-3-yl)pyrrolo[1,2-a]pyrazin-1(2H)-one]",7.00 to 8.00
2,"NCc1ccc(Cc2c[nH]c(=O)c3cc(-c4c[nH]c5ncccc45)cn23)cc1 [Example 37, 4-[4-(aminomethyl)benzyl]-7-(1H-pyrrolo[2,3-b]pyridin-3-yl)pyrrolo[1,2-a]pyrazin-1(2H)-one]",> 8.00
3,"CS(=O)(=O)Nc1ccc(Cc2c[nH]c(=O)c3cc(-c4c[nH]c5ncccc45)cn23)cc1 [Example 38, N-(4-{[1-oxo-7-(1H-pyrrolo[2,3-b]pyridin-3-yl)-1,2-dihydropyrrolo[1,2-a]pyrazin-4-yl]methyl}phenyl)methanesulfonamide]",> 8.00
4,"CC(Nc1ccc(Cc2c[nH]c(=O)c3cc(-c4c[nH]c5ncccc45)cn23)cc1)C1CC1 (centres unmarked) [Example 39, 4-{4-[(1-cyclopropylethyl)amino]benzyl}-7-(1H-pyrrolo[2,3-b]pyridin-3-yl)pyrrolo[1,2-a]pyrazin-1(2H)-one]",> 8.00
5,"CN1CCCC(C(=O)Nc2ccc(Cc3c[nH]c(=O)c4cc(-c5c[nH]c6ncccc56)cn34)cc2)C1 (centres unmarked) [Example 40, 1-methyl-N-(4-{[1-oxo-7-(1H-pyrrolo[2,3-b]pyridin-3-yl)-1,2-dihydropyrrolo[1,2-a]pyrazin-4-yl]methyl}phenyl)piperidine-3-carboxamide]",> 8.00
6,"CN(C)c1cccc(Cc2c[nH]c(=O)c3cc(-c4c[nH]c5ncccc45)cn23)c1 [Example 41, 4-[3-(dimethylamino)benzyl]-7-(1H-pyrrolo[2,3-b]pyridin-3-yl)pyrrolo[1,2-a]pyrazin-1(2H)-one]",> 8.00
7,"O=C(Nc1ccc(Cc2c[nH]c(=O)c3cc(-c4c[nH]c5ncccc45)cn23)cc1)c1ccccc1 [Example 42, N-(4-{[1-oxo-7-(1H-pyrrolo[2,3-b]pyridin-3-yl)-1,2-dihydropyrrolo[1,2-a]pyrazin-4-yl]methyl}phenyl)benzamide]",> 8.00
8,"CS(=O)(=O)Nc1ccc(C(=O)c2c[nH]c(=O)c3cc(-c4c[nH]c5ncccc45)cn23)cc1 [Example 43, N-(4-{[1-oxo-7-(1H-pyrrolo[2,3-b]pyridin-3-yl)-1,2-dihydropyrrolo[1,2-a]pyrazin-4-yl]carbonyl}phenyl)methanesulfonamide]",> 8.00
9,"NC1CCC(NCc2ccc(Cc3c[nH]c(=O)c4cc(-c5c[nH]c6ncccc56)cn34)cc2)CC1 (centres unmarked) [Example 44, 4-(4-{[(4-aminocyclohexyl)amino]methyl}benzyl)-7-(1H-pyrrolo[2,3-b]pyridin-3-yl)pyrrolo[1,2-a]pyrazin-1(2H)-one]",> 8.00
10,"CC(=O)NCc1ccc(Cc2c[nH]c(=O)c3cc(-c4c[nH]c5ncccc45)cn23)cc1 [Example 45, N-(4-{[1-oxo-7-(1H-pyrrolo[2,3-b]pyridin-3-yl)-1,2-dihydropyrrolo[1,2-a]pyrazin-4-yl]methyl}benzyl)acetamide]",< 7.00

# Other lines, results leading:
row,pKi,SMILES
1,> 8.00,"CC(C)N1CCC(Nc2ccc(Cc3c[nH]c(=O)c4cc(-c5c[nH]c6ncccc56)cn34)cc2)CC1 [Example 32, 4-{4-[(1-isopropylpiperidin-4-yl)amino]benzyl}-7-(1H-pyrrolo[2,3-b]pyridin-3-yl)pyrrolo[1,2-a]pyrazin-1(2H)-one]"
2,> 8.00,"CN(C)CC(=O)Nc1cccc(Cc2c[nH]c(=O)c3cc(-c4c[nH]c5ncccc45)cn23)c1 [Example 33, N^2,N^2-dimethyl-N-(3-{[1-oxo-7-(1H-pyrrolo[2,3-b]pyridin-3-yl)-1,2-dihydropyrrolo[1,2-a]pyrazin-4-yl]methyl}phenyl)glycinamide]"
3,> 8.00,"CN(C)CC(=O)NCc1ccc(Cc2c[nH]c(=O)c3cc(-c4c[nH]c5ncccc45)cn23)cc1 [Example 34, N^2,N^2-dimethyl-N-(4-{[1-oxo-7-(1H-pyrrolo[2,3-b]pyridin-3-yl)-1,2-dihydropyrrolo[1,2-a]pyrazin-4-yl]methyl}benzyl)glycinamide]"
4,> 8.00,"CN(C)Cc1ccc(Cc2c[nH]c(=O)c3cc(-c4c[nH]c5ncccc45)cn23)cc1 [Example 36, 4-{4-[(dimethylamino)methyl]benzyl}-7-(1H-pyrrolo[2,3-b]pyridin-3-yl)pyrrolo[1,2-a]pyrazin-1(2H)-one]"
